Here are results for two compounds from patent publication US10787423B2, “Piperazine and piperidine derivatives, their synthesis and use thereof in inhibiting VDAC oligomerization, apoptosis and mitochondria dysfunction” (THE NATIONAL INSTITUTE FOR BIOTECHNOLOGY IN THE NEGEV LTD., priority 2015, dated 2020).

Assay [1] has as its target T1, purified rat VDAC1 (Rattus norvegicus, UniProt Q9Z2L0).
T1 construct: from tissue; host or cells: rat liver mitochondria
The assay can be described thus: VDAC1 channel conductance in planar lipid bilayer. In kind it is biochemical. The note with it: for IC50 / Max Inhibition (maximal reduction in channel conductance): planar lipid bilayer, measured at +10 mV and −10 mV. An excerpt: The direct interaction between VDAC and the compounds of general Formulae (I), (Ia), (Ib), (Ic), (Id), (II) and (IIa), especially the specific compounds of Formulae 1, 2, 3, 10 and 11, may be measured by assessing VDAC channel conductance, following its reconstitution into a planar lipid bilayer (PLB). The compounds of the general Formulae (I), (Ia), (Ib), (Ic), (Id), (II) and (IIa), interact with VDAC and reduce its channel conductance. To obtain quantitative parameters of this interaction and derive a dissociation constant, e.g. a microscale thermophoresis (MST) interaction assay may be performed. In this manner, dissociation values are derived from the curves showing the affinity of the compounds of the invention to VDAC.
Briefly, rat liver mitochondria (5 mg/ml) in 10 mM Tris-HCl, pH 7.2, were incubated with 2% LDAO at 0° C. for 20 min, followed by centrifugation (30 min, 14,000 g) and the obtained supernatant was loaded onto a dry celite:hydroxyapatite (2:1) column. VDAC1 was eluted with a solution containing 2% LDAO, 10 mM Tris-HCl, pH 7.2, 50 mM NaCl, and 20 to 22 mM NaH2PO4, with VDAC1 detection by Coomassie blue staining. The VDAC1-containing fractions were dialyzed against 10 mM Tris-HCl, pH 7.2, and subjected to a second chromatography step on a carboxymethyl-cellulose (CMC) column from which VDAC1 was eluted with a solution containing 10 mM Tris-HCl, pH 7.2, 0.1% LDAO and 500 mM NaCl, detected as above. The VDAC1-containing fractions were collected and used for VDAC1 channel conductance and MST assays.
The reconstitution of purified rat VDAC1 into a planar lipid bilayer (PLB) and subsequent single and multiple channel current recordings and data analysis were carried out as follows. Briefly, the PLB was prepared from soybean asolectin dissolved in n-decane (30 mg/ml). Purified VDAC1 (1 ng) was added to the chamber defined as the cis side containing 1 M NaCl, 10 mM Hepes, pH 7.4. Currents were recorded under voltage-clamp using a Bilayer Clamp BC-535B amplifier (Warner Instrument, Hamden, Conn.). The currents, measured with respect to the trans side of the membrane (ground), were low-pass-filtered at 1 kHz and digitized online using a Digidata1440-interface board and pClampex 10.2 software (Axon Instruments, Union City, Calif.).
VDAC1 was purified as described above in Methods (VDAC1 purification). Purified VDAC1 was reconstituted into a planar lipid bilayer (PLB) membrane and currents through VDAC1, in response to a voltage steps from 0 to +10 mV, from 0 to −10 mV, from 0 to +40 mV, and from 0 to −40 mV, were recorded before and 15 min after the addition of 20 μM of the compound of Formula 3 (VBIT-12).
Solid circles indicate conductance without VBIT-12, open circles with 20 μM VBIT-12.
Further, the VDAC1 channel conductance was measured with the increasing concentrations of VBIT-12, or of compound of Formula 1 (VBIT-4). Concentration dependence of VBIT-12 reducing VDAC1 channel conductance was measured at +10 my and at −10 mV.

For assay [2], the system named is HeLa cells. The assay can be described thus: Selenite-induced cell death in HeLa cells, PI staining and flow cytometry. It counts as cell-based. On the procedure:
Cells, e.g. HeLa cells (2×10^5), untreated or treated with apoptosis-inducing reagents, were analyzed for apoptotic cell death using PI, annexin V-FITC and flow cytometer analysis. Cells were collected (1500×g for 10 min), washed, and resuspended in 200 μl binding buffer (10 mM HEPES/NaOH, pH 7.4, 140 mM NaCl, and 2.5 mM CaCl2). Annexin V-FITC was added according to the recommended Protocol (Enzo Life Sciences, Switzerland), and the cells were incubated in the dark for 15 min. Cells were then washed with binding buffer and resuspended in 200 μl binding buffer, to which PI was added immediately before flow cytometry analysis. At least 10,000 events were collected, recorded on a dot plot, and analyzed by the FACSCalibur™ flow cytometer software (BD Biosciences, Franklin Lakes, N.J.).
HeLa cells were incubated with varying concentrations (2-20 μM) of racemic compound of Formula 1 (VBIT-4) and of the enantiomers of compound of Formula 1 (VBIT-4-1 and VBIT-4-2) for 1 hour, and then with or without selenite (25 μM, 3 hours). Cells were harvested and assayed for apoptotic cell death, using PI staining and FACS analysis. The results shown in the FIG. 14b correspond to means±SD (n=3).
Cells (2.5 mg/ml) were washed with and resuspended in PBS, pH 8.3 and incubated with membrane-permeable cross-linker EGS (250 μM) at 30° C. for 15 min and then subjected to SDS-PAGE and immunoblotting using anti-VDAC1 antibodies. Several anti-VDAC1 antibody-labeled protein bands were obtained upon exposure to the apoptosis stimuli that are correspond to VDAC1 dimers, trimers, tetramers and multimers. Cell death as induced by selenite and inhibited by the compound of Formula 3 (VBIT-12) or compound of Formula 11 (DIV00781) is shown (FIG. 21B), with closed circles corresponding to the compound of Formula 3 and open circles corresponding to the compound of Formula 11. Cell death was analyzed using propidium iodide (PI) staining and flow cytometry.
(In general: In flow cytometry, cells or beads pass a laser one at a time.)

T1 sequence (Q9Z2L0 whole entry): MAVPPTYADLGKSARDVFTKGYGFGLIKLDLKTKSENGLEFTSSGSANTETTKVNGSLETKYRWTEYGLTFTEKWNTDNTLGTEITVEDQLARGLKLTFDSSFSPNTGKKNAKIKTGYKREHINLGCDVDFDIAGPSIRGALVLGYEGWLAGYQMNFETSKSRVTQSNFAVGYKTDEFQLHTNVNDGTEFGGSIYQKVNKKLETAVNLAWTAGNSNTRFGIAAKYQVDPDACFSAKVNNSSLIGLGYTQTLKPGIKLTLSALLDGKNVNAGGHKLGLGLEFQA

A word on the IC50: it is the concentration that inhibits the measured activity by half. Read a low IC50 as higher potency. `O=C(O)CNC(=O)C1(Nc2ccccc2)CCN(Cc2cccc3ccccc23)CC1` [Formula 3]: in assay [1], the “decrease in maximal channel conductance relative to VBIT-4” value is “higher decrease in the maximal channel conductance”, the IC50 is 5 µM and the “Max Inhibition (maximal reduction in channel conductance)” value turned out to be 80%. The “VDAC1 conductance in multi-channel experiments as function of voltage” value in assay [1] (20 μM) is recorded as “stabilizing VDAC1 at a low conductance state at all voltages tested”. The VDAC1 channel conductance result in assay [1] (20 μM, 15 min after addition, voltage steps 0 to ±10 mV and ±40 mV) was “Channel conductance was reduced and the channel was stabilized in a low conducting state”. In addition, in assay [1] (from concentration dependence of channel conductance), the “affinity to VDAC1 relative to VBIT-4” value was “higher affinity than VBIT-4”. In addition, the “cell death as induced by selenite” value in assay [2] (22 h with selenite 8 μM and increasing concentrations) was “inhibited”.

In the case of `O=C(CC(CO)N1CCN(c2ccc(OC(F)(F)F)cc2)CC1)Nc1ccc(Cl)cc1` (racemic) [Formula 1, N-(4-chlorophenyl)-4-hydroxy-3-(4-(4-(trifluoromethoxy)phenyl)-piperazin-1-yl)butanamide], in assay [1], inhibition was half-maximal at 15 µM (IC50) and the “Max Inhibition (maximal reduction in channel conductance)” value came to 50%. Besides, the apoptotic cell death entry in assay [2] (2-20 μM 1 hour, then selenite 25 μM 3 hours) is on record as “Inhibit Apoptotic Cell Death”.
